Assay: gradient 5% acetonitrile 3 min, to 50% in 2 min, to 85% in 15 min, held 3 min, 100 µL/min
Details: column: Zorbax Extend-C18 2.1 x 50 mm; eluents: water / acetonitrile, 0.1% formic acid
Method in brief: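 Standards, all pure, were combined into mixtures of ~100 molecules and run at 100 μL/min on a Zorbax Extend-C18 column (2.1 × 50 mm, 1.8 μm) with water and acetonitrile, each containing 0.1% formic acid. A coupled quadrupole time-of-flight mass spectrometer operated in positive and negative ionization mode. Retention time values come from computationally picked adduct peaks, each inspected manually.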

SMILES | RP-LC retention time [s]
COCc1cc(=O)n(CC(=O)Nc2ccccc2C)c(N)n1 | 603
Cc1nc(NCc2ccco2)sc1C(=O)Nc1cccc(C(F)(F)F)c1 | 887
COCCOCc1nc(C2CCN(S(=O)(=O)c3cc(F)ccc3F)CC2)no1 | 806
CC1(C)Cc2cccc(OCC(=O)NCCc3ccc(S(N)(=O)=O)cc3)c2O1 | 694
COc1ccc2c3c([nH]c2c1)[C@H](CC(C)C)N1C(=O)[C@H](CCC(=O)OC(C)(C)C)NC(=O)[C@@H]1C3 | 1100
COCCNc1c(-c2cccc(OC)c2)nc2sc(C(=O)N(C)C)c(C)n12 | 698
CCOc1ccccc1C(=O)N1CCC2(CC1)NCc1ccccc1-n1ccnc12 | 572
Cn1c(N2CCC(C(=O)N3CCN(Cc4ccc5c(c4)OCO5)CC3)CC2)cc(=O)n(C)c1=O | 579
Cc1oc(-c2[nH]ncc2C(=O)N2CCCC2)cc1S(=O)(=O)NCc1ccc(F)cc1F | 710
COc1ccc(-c2csc3c(=O)n(CC(C)C)cnc23)cc1 | 1020
COCCn1cc(CC(=O)NC2CCCCC2)c2cccnc21 | 700
CCCNC(=O)C(=O)NCc1n[nH]c(=O)c2ccccc12 | 627
CCc1nc(-c2cc(S(=O)(=O)NCC(=O)N3CCOCC3)c(C)s2)no1 | 753
CCOC(=O)c1cnn(-c2ccc(C(=O)Nc3ccc(Br)cc3)cn2)c1N | 1020
CSc1ccc(CCNC(=O)Cn2c(=O)c3cccn3c3ccc(F)cc32)cc1 | 897
CN1CCC(N2CCN(C(=O)c3cc(-c4ccc(F)cc4)cn3C)CC2)CC1 | 576
CCc1cc(=O)n(CC(=O)Nc2ccc(C(C)C)cc2)c(N2CCOCC2)n1 | 895
CCn1c(=O)c(=O)n(CC(=O)NCc2ccco2)c2cccnc21 | 652
O=C(COc1ccccc1Cl)N1CCCCC1CCN1CCCC1 (centres undefined) | 656
CN(CC1CCOC1)C(=O)Nc1ccccc1Br (centres undefined) | 736
COC(=O)c1c(C)[nH]c(C(=O)N2CCC(CC(=O)NCc3ccc(OC)cc3)CC2)c1C | 715
COC(=O)c1cccc(-c2nc(C3CC(=O)N(c4ccc(Cl)cc4)C3)no2)c1 (centres undefined) | 1030
COc1cc(NC(=O)NC2CCN(c3ccc(F)cc3)C2=O)cc(OC)c1 (centres undefined) | 769

SMILES | RP-LC retention time [s]
COc1cc(Cl)ccc1C(=O)NCc1c(C)noc1C | 810
CCS(=O)(=O)N1CCCc2cc(C(=O)Nc3cc(OC)c(Cl)cc3OC)ccc21 | 1040
Cc1cnc(C2CCC2)n1CCNC(=O)c1nccn1C | 556
CN(CC1CCOCC1)C(=O)Nc1cc(F)cc(F)c1 | 754
COCCOC(=O)c1c(C)oc2ccc(OC(=O)C3CC3)cc12 | 941
COc1ccc2cc(C(=O)Nc3ccc(F)cc3)[nH]c2c1 | 910
COc1ccccc1OCCNC(=O)[C@@]12CCCC[C@H]1N(C)C(=O)CC2 | 663
COc1cccc(CNC(=O)C2(C)CCCN(C(=O)Nc3cc(Cl)ccc3C)C2)c1 (centres undefined) | 982
O=C(c1csc(N2CCCCCC2)n1)N1CCOCC1 | 767
Cc1nc(-c2cccc(NC(=O)c3cncc(Br)c3)c2)no1 | 834
Cc1nccn1Cc1noc(-c2ccc(Cl)cc2)n1 | 638
COc1ccc(-c2noc(C3CCCN3C(=O)c3ccc(C)c(F)c3)n2)cc1 (centres undefined) | 1040
O=C(NCCSC12CC3CC(CC(C3)C1)C2)c1ccc(CN2C(=O)CCn3nccc32)cc1 | 645
CN(CCc1ccc(Cl)c(Cl)c1)CC(O)COc1ccc(NS(C)(=O)=O)cc1 (centres undefined) | 715
CC1Oc2ccccc2OC1C(=O)Nc1sc2c(c1C#N)CCCC2 (centres undefined) | 1120
COc1ccc(C(=O)N2CCC3(C2)C(=O)Nc2ccc(OC)cc23)cc1 (centres undefined) | 683
Cc1nc2nc(-c3ccc(C(C)(C)C)cc3)nn2c(C)c1CC(=O)N1CCN(C)CC1 | 682
O=C(CC1CCCC1)N1CCC(c2noc(-c3ccncc3)n2)C1 (centres undefined) | 786
C[C@H]1CN(C(=O)Nc2cccc(Cl)c2)C[C@@H]1c1nc(-c2cccnc2)no1 | 849
Cc1ccc(CSc2nc(CC(=O)NCc3cccnc3)cs2)cc1 | 605
Cc1nn(CC(=O)NCCC(C)C)c(=O)c2nc(-c3ccccc3)sc12 | 871
COc1ccc(C2Nc3ccc(C)cc3[C@H]3OCCC[C@@H]23)cc1O (some centres undefined) | 894

Continued, values first:

RP-LC retention time [s] | SMILES
671 | O=S(=O)(c1ccccc1F)N1CC(n2cnnc2-c2ccccc2)C1
612 | CCOc1ccccc1NC(=O)Nc1ccc2nc(N3CCN(C)CC3)cc(C)c2c1
752 | O=C(Cc1ccc(Cl)cc1)Nc1cnc(N2CCCC2)nc1
617 | COc1ccc(NC(=O)N2CCC(n3cnc4cccnc43)CC2)cc1
697 | Nc1ncnc(N2CCc3ccccc32)c1[N+](=O)[O-]
743 | CCOc1ccccc1NC(=O)Cn1cnc2nc(N3CCCC(C(=O)NC(C)C)C3)sc2c1=O (centres undefined)
1240 | COC(=O)c1ccc2c(=O)n(-c3cc(C)cc(C)c3)c(N3CCCC3)nc2c1
866 | Cc1nc(-c2noc(-c3ccccc3)n2)cn1CC(=O)NCc1ccc(F)c(Cl)c1
1050 | Cc1cccc(N2CCN(C(=O)C3CCN(S(=O)(=O)c4cccc5nsnc45)CC3)CC2)c1C
677 | O=S(=O)(c1ccccc1)c1nnn2c1nc(N1CCN(c3ccccn3)CC1)c1ccccc12
762 | COc1cccc(CN2CCc3nc(N4CCN(c5ccccc5)CC4)ncc3C2)c1OC
630 | CC1CCN(C(=O)C2CCN(c3nc4ccc(-c5cccnc5)nc4s3)CC2)CC1
1070 | CCOC(=O)COC(=O)c1cn(-c2ccc(OCC)cc2)c(=O)c2ccccc12
634 | COc1ccc(CNC(=O)c2cccc(N3CCNC(c4ccccc4)C3)n2)cc1 (centres undefined)
889 | COc1cccc(NS(=O)(=O)c2ccc3c(c2)C(=O)N(C)c2ncccc2O3)c1
649 | O=C(c1ccoc1)N1CCCn2cc(-c3ccccc3F)nc21
644 | CC(C)CN1C(=O)c2ccccc2C(C(=O)NCCCN2CCOCC2)C1c1cccs1 (centres undefined)
907 | O=C1CC2(CCN(S(=O)(=O)c3ccc([N+](=O)[O-])cc3)CC2)Oc2ccccc21
738 | CCCn1cc(C(=O)NC2CCCC2)c2nn(-c3ccccc3)c(=O)c-2c1
809 | CCn1nnc2cc(-c3noc(C4CC(=O)N(c5cccc(Cl)c5)C4)n3)ccc21 (centres undefined)
961 | COc1ccc(-n2ncc3c(=O)n(Cc4nc(-c5ccccc5)no4)cnc32)cc1
766 | O=C(Nc1ccc(-c2ccno2)cc1)C1CCN(C(=O)C2Sc3ccccc3NC2=O)CC1 (centres undefined)

RP-LC retention time [s] | SMILES
719 | O=C(NCc1ccc2c(c1)OCO2)C1CCN(C(=O)c2cccc(F)c2)CC1
682 | CCn1cc(-c2ccncc2)cc1C(=O)NCc1ccccc1Br
706 | O=C(CN1C(=O)CCC1=O)Nc1ncc(S(=O)(=O)c2ccc([N+](=O)[O-])cc2)s1
1070 | Cc1ccccc1-c1noc(-c2ccc(S(=O)(=O)N3CCCC3)o2)n1
819 | CNC(=O)c1cc(-c2ccc(F)cc2)nc2ccccc12
1110 | COc1cccc(-c2nc(C3CCN(S(=O)(=O)c4cccc(F)c4)CC3)no2)c1
576 | O=C(NCC(=O)N1CCN(c2ccccn2)CC1)c1cncc(Br)c1
656 | O=C(NCC(F)(F)F)C1CCN(C(=O)NCc2ccccc2)CC1
928 | CCc1noc(-c2cc(=O)n(CC(=O)NCc3ccc(SC)cc3)c3ccccc23)n1
772 | c1ccc(N2CCN(Cc3nc(-c4ccc(N5CCOCC5)nc4)no3)CC2)cc1
872 | CCc1nc2ccccc2c(=O)n1Cc1noc(-c2cccc(OC)c2OC)n1
1310 | Cc1csc(-c2csc(S(=O)(=O)N3CCN(c4cccc(C)c4C)CC3)c2)n1
788 | CC(=O)N1CCc2ccccc2C1C(=O)NCc1ccccc1C (centres undefined)
649 | O=C(NCCCn1c(-c2ccncc2)nc2cccnc21)NCCc1ccccc1
740 | Cc1nc(-c2csc(S(=O)(=O)N3CCC(C(=O)Nc4ccccn4)CC3)c2)no1
622 | CCN1CCN(Cc2ccc(NC3=NS(=O)(=O)C(c4ccc(OC)cc4)=C3C)cc2)CC1
856 | CCc1cccc(N2C(=O)CN(S(=O)(=O)CC)CC2(C)C(=O)NCc2ccccc2)c1 (centres undefined)
1030 | COc1ccc(-c2noc(C3CCCN3C(=O)COc3ccc(Cl)cc3)n2)cc1 (centres undefined)
901 | Cc1cccc(C)c1Nc1c(-c2ccc(F)cc2)nc2cnccn12
751 | CC(=O)Nc1ccc(-n2cnc(C(=O)N3CCN(c4ccc(Cl)cc4)CC3)c2)nc1
604 | CCn1c(C2CCN(C(=O)c3ccoc3)C2)nc2cccnc21 (centres undefined)
1020 | Cn1c(CNC(=O)CSc2nnc(-c3ccc4c(c3)OCO4)o2)nc2ccccc21

Reference: the METLIN SMRT retention time set (Domingo-Almenara et al. 2019)
